Results on 15 compounds are retold here after patent US11319320B2, “PIM kinase inhibitor compositions, methods, and uses thereof” (Snap Bio, Inc., priority 2017, dated 2022).

The target of assay [1] is T1, PIM2 (Homo sapiens, UniProt Q9P1W9). Description: KINOMEscan competition binding assay (Kd). The settings on record: run in duplicate.
For assay [2], the target named is T1, PIM2. Description: Biochemical kinase assay, radiolabeled ATP filter binding (Reaction Biology). The following applies: 10 μM ATP, peptide substrate […].
The target in assay [3] is T2, PIM1 (Homo sapiens, UniProt P11309). The description is as above. The following applies: 10 μM ATP, peptide substrate […].
Assay [4] has as its target T3, PIM3 (Homo sapiens, UniProt Q86V86). Described as above. The following applies: 10 μM ATP, peptide substrate RSRHSSYPAGT
Assay [5] has as its target T2, PIM1. Description: KINOMEscan competition binding assay (Kd).
Assay [6] concerns the target T3, PIM3. Description: KINOMEscan competition binding assay (Kd). The following applies: run in duplicate.
The test system of a further assay is PANC-1. Description: Cell Titer-Glo 2.0 luminescent cell viability assay. The class given is cell-based, human. The following applies: 72 hour incubation, cell viability (ATP luminescence). How it is done: To obtain growth inhibition data of endodermal cancer cells for PIM kinase inhibitors, Compound 122 was tested against SNU-16, HepG2, MIA PaCa-2, SW480, DU145, HEK-293, PANC-1, and THLE-3 cell lines using CELL TITER-GLO® 2.0 Luminescent Cell Viability Assay (Promega Corporation, Madison, Wis.) at Reaction Biology Corporation (Maven, Pa.). All cell lines were purchased from American Type Culture Collection (ATCC, Manassas, Va.) and maintained in the recommended culture media in the presence of 10% fetal bovind serum, […] of penicillin and 100 µg/mL of streptomycin at 37° C. in a humidified atmosphere of 5% CO2 and 95% air. To initiate the growth inhibition study, Compound 122 was diluted in DMSO solution with 10-dose and 3-fold dilutions in a source plate starting at 50 mM. […] The cells in the cell culture plates were incubated with the compounds at 37° C. for 72 hours in a humidified atmosphere of 5% CO2 and 95% air. After a 72 hour incubation period, 25 μl of Cell Titer Glo 2.0 reagent was added to each well. The contents were mixed on an orbital shaker for 2 minutes and incubated at room temperature for 15 minutes to stabilize the luminescent signal. Luminescence was recorded by Envision 2104 Multilabel Reader (PerkinElmer, Santa Clara, Calif.). The number of viable cells in culture was determined based on quantitation of the ATP present in each culture well. […]
In general terms: Cellular ATP, detected with luciferase, serves as a proxy for viable cell number.

For a further assay, the system named is HepG2. The assay is described as above. It counts as cell-based. The following applies: Homo sapiens, 72 hour incubation, cell viability (ATP luminescence). As to the method:
(§1) To obtain growth inhibition data of endodermal cancer cells for PIM kinase inhibitors, Compound 122 was tested against SNU-16, HepG2, MIA PaCa-2, SW480, DU145, HEK-293, PANC-1, and THLE-3 cell lines using CELL TITER-GLO® 2.0 Luminescent Cell Viability Assay (Promega Corporation, Madison, Wis.) at Reaction Biology Corporation (Maven, Pa.). All cell lines were purchased from American Type Culture Collection (ATCC, Manassas, Va.) and maintained in the recommended culture media in the presence of 10% fetal bovind serum, […] of penicillin and 100 µg/mL of streptomycin at 37° C. in a humidified atmosphere of 5% CO2 and 95% air. To initiate the growth inhibition study, Compound 122 was diluted in DMSO solution with 10-dose and 3-fold dilutions in a source plate starting at 50 mM. […] The cells in the cell culture plates were incubated with the compounds at 37° C. for 72 hours in a humidified atmosphere of 5% CO2 and 95% air. After a 72 hour incubation period, 25 μl of Cell Titer Glo 2.0 reagent was added to each well. The contents were mixed on an orbital shaker for 2 minutes and incubated at room temperature for 15 minutes to stabilize the luminescent signal. Luminescence was recorded by Envision 2104 Multilabel Reader (PerkinElmer, Santa Clara, Calif.). The number of viable cells in culture was determined based on quantitation of the ATP present in each culture well. […] Table 5 lists the IC50 values for Compound 122 in the tested cell lines.

The test system of another assay is SW480. The description is as above. The class given is cell-based. The following applies: Homo sapiens, 72 hour incubation, cell viability (ATP luminescence). As to the method: as §1
In the next assay the test system is THLE-3. Described as above. It counts as cell-based. The following applies: THLE3; 72 hour incubation, cell viability (ATP luminescence). How it is done:
as §1

The test system of a further assay is MIA PaCa-2. The assay is described as above. The class given is cell-based. The settings on record: Homo sapiens, 72 hour incubation, cell viability (ATP luminescence). How it is done: as §1
For a further assay, the system named is SNU-16. Described as above. It counts as cell-based. The following applies: Homo sapiens, 72 hour incubation, cell viability (ATP luminescence). How it is done: as §1
Another assay relates to HEK-293. The description is as above. It counts as cell-based. The following applies: Homo sapiens, HEK293; 72 hour incubation, cell viability (ATP luminescence). How it is done:
as §1

The subject of another assay is DU145. The assay is described as above. It counts as cell-based. The following applies: Homo sapiens, DU-145; 72 hour incubation, cell viability (ATP luminescence). How it is done: as §1
Setting [7] is: competition binding, run in duplicate, read-out: Kd PIM1.
[8] abbreviates: competition binding, read-out: Kd PIM3.

Values joined by “and” are separate entries in the source; they are usually repeats but may differ in a detail not shown here. Equal values may be shown once. Read-outs that look alike come from different tables or passages of the source. A value given as a limit tells only on which side of the number the result lay.

As a reminder, the Kd is the constant that tells how readily two partners part at equilibrium. In general, IC50 refers to the concentration needed to halve the response being measured. A high value points to weaker potency.

For `O=C1NC(=O)c2c1c1c3ccccc3[nH]c1c1[nH]c3ccccc3c21` [Arcyriaflavin A, 12,13-dihydro-5H-indolo[2,3-a]pyrrolo[3,4-c]carbazole-5,7(6H)-dione, reference compound], the Kd on PIM2 [1] is 19 nM; on PIM1 [5] (setting [7]) it was 0.021 µM; at PIM3 [6] (setting [8]), 2 nM and 1.9 nM. The IC50 on PIM2 [2] amounted to 21 nM; at PIM1 [3], 2.2 nM; at PIM3 [4], 0.3 nM.

Turning to `O=C1NC(=O)c2c1c1c3ccccc3[nH]c1c1c2c2ccccc2n1CCN1CCOCC1` [Compound 3, 12,13-dihydro-12-(2-(4-morpholine)ethyl)-5H-Indolo[2,3-a]pyrrolo[3,4-c]carbazole-5,7(6H)-dione], the IC50 turned out to be 138 nM at PIM2 [2], 1.6 nM on PIM1 [3] and 0.2 nM at PIM3 [4].

With `O=C1NC(=O)c2c1c1c3ccc(O)cc3[nH]c1c1[nH]c3cc(O)ccc3c21` [Compound 122], the Kd at PIM2 [1] stood at 9 nM; at PIM1 [5] (setting [7]), 0.011 µM; on PIM3 [6] (setting [8]) it was 3 nM. The IC50 at PIM2 [2] stood at 5.4 nM; at PIM1 [3] it was 0.5 nM; on PIM3 [4], 0.03 nM; with HepG2, 970 nM; with SW480, 2890 nM; in the assay with THLE-3 it was 4620 nM. The IC50 in the assay with MIA PaCa-2 worked out at 4810 nM; with SNU-16, 700 nM; in the assay on HEK-293, 2700 nM; in the assay on DU145, 2330 nM. Besides, the “IC50 PANC-1” value in the assay with PANC-1 is reported as “no inhibition”.

Turning to `O=C1NC(=O)c2c1c1c3cccc(O)c3[nH]c1c1[nH]c3c(O)cccc3c21` [Compound 123], the Kd was found to be 84 nM at PIM2 [1], 0.13 µM on PIM1 [5] (setting [7]) and 6.4 nM at PIM3 [6] (setting [8]). Besides, the values for the IC50 on PIM2 [2], at PIM1 [3] and on PIM3 [4] were 55 nM, 3.9 nM and 0.2 nM, respectively.

Regarding `O=C1NC(=O)c2c1c1c([nH]c3cccc(F)c31)c1[nH]c3cccc(F)c3c21` [Compound 128], the values for the Kd on PIM2 [1], on PIM1 [5] (setting [7]) and on PIM3 [6] (setting [8]) were 260 nM, 0.28 µM and 24 nM, respectively.

On to `O=C1NC(=O)c2c1c1c3cc(F)ccc3[nH]c1c1[nH]c3ccc(F)cc3c21` [Compound 129, 3,9-difluoro-arcyriaflavin A], for which the Kd at PIM2 [1] came to 77 nM; at PIM1 [5] (text value printed in μM, read-out: Kd for PIM1) it was 2.5 µM; at PIM3 [6] (setting [8]), 27 nM.

As to `O=C1NC(=O)c2c1c1c3ccc(F)cc3[nH]c1c1[nH]c3cc(F)ccc3c21` [Compound 130], the results for the Kd on PIM2 [1], at PIM1 [5] (setting [7]) and on PIM3 [6] (setting [8]) were 150 nM, 0.7 µM and 48 nM, respectively.

`O=C1NC(=O)c2c1c1c3cccc(F)c3[nH]c1c1[nH]c3c(F)cccc3c21` [Compound 131]: the results for the dissociation constant (Kd) on PIM2 [1], at PIM1 [5] (setting [7]) and at PIM3 [6] (setting [8]) were 2600 nM, 6.3 µM and 130 nM, respectively.

`O=C1NC(=O)c2c1c1c3cc(Br)ccc3[nH]c1c1[nH]c3ccc(Br)cc3c21` [Compound 137]: the figures for the Kd on PIM2 [1], on PIM1 [5] (setting [7]) and on PIM3 [6] (setting [8]) were over 10000 nM, over 10 µM and over 10000 nM, respectively.

As to `O=C1NC(=O)c2c1c1c3ccc(Br)cc3[nH]c1c1[nH]c3cc(Br)ccc3c21` [Compound 138], the Kd was over 10000 nM at PIM2 [1], over 10 µM at PIM1 [5] (setting [7]) and over 10000 nM on PIM3 [6] (setting [8]).

As to `O=C1NC(=O)c2c1c1c3cccc(Br)c3[nH]c1c1[nH]c3c(Br)cccc3c21` [Compound 139], the values for the Kd at PIM2 [1], at PIM1 [5] (setting [7]) and on PIM3 [6] (setting [8]) were over 3000 nM, over 3 µM and over 3000 nM, respectively.

For `N#Cc1ccc2c(c1)[nH]c1c3[nH]c4cc(C#N)ccc4c3c3c(c21)C(=O)NC3=O` [Compound 146], the results for the Kd at PIM2 [1], at PIM1 [5] (setting [7]) and at PIM3 [6] (setting [8]) were over 10000 nM, over 10 µM and over 10000 nM, respectively.

Regarding `N#Cc1cccc2c1[nH]c1c3[nH]c4c(C#N)cccc4c3c3c(c21)C(=O)NC3=O` [Compound 147], the Kd on PIM2 [1] is over 3000 nM; on PIM1 [5] (setting [7]), over 3 µM; on PIM3 [6] (setting [8]), over 3000 nM.

For the compound `COC(=O)[C@@]1(O)C[C@H]2O[C@]1(C)n1c3ccccc3c3c4c(c5c6ccccc6n2c5c31)C(=O)NC4` [Compound K252a, K252a, reference compound], on PIM3 [6] (Kd PIM3, competition binding), the Kd is about 10 nM.

Regarding `CN(C)C[C@@H]1CCn2cc(c3ccccc32)C2=C(C(=O)NC2=O)c2cn(c3ccccc23)CCO1` [Ruboxistaurin, ruboxistaurin, reference compound], the IC50 at PIM2 [2] was 7650 nM; at PIM3 [4] it was 10 nM.
